Patent US10925858B2, “S-nitrosoglutathione (GSNO) and GSNO reductase inhibitors for use in therapy” (MUSC FOUNDATION FOR RESEARCH DEVELOPMENT, priority 2017, dated 2021)

Legend:
[1] = tested on: EAE mice; assay: Active EAE (MOG35-55), clinical score; format: in vivo, C57BL/6 mice
Procedure: Female C57BL/6 mice of 8-12 weeks of age, purchased from Jackson Laboratory, were provided with food and water ad libitum and were kept in pathogen free animal care facility of Medical University of South Carolina (MUSC) throughout the study. […] EAE was induced as described previously (Nath et al., 2009). Briefly, mice were immunized subcutaneously in the flank regions with MOG35-55 peptide (MOG; 200 μg; Peptide International) emulsified (1:1) in 100 ul complete Freund's adjuvant (CFA) on day 0 and day 7. Additionally, 300 ng of Pertussis toxin (Sigma-Aldrich, St. Louis, Mo.) was given on day 0 and day 2 by i.p. injection. Pertussis toxin used as per the standardized protocol reported by us and other investigators for the induction of EAE (Nath et al., 2009). Similarly, healthy control group received subcutaneous injection of PBS and CFA emulsion on day 0 and day 7. Clinical signs of EAE were scored by examiners blinded to experimental treatments using the following scale: 0=no clinical signs of disease; 1=piloerection and sluggish; 2=limp tail (ataxia); 2.5=ataxia with partial hind limb paralysis; 3=full paralysis of hind limb; 3.5=full paralysis of hind limb with paralysis of one fore limb; 4=full paralysis of two limbs; 4.5=moribund stage; 5=death. […] The drug treatments were continued till the termination of the study (day 41 post immunization). EAE animals without drug treatment received PBS. Likewise, healthy controls received vehicle.
Clinical disease scores as average maximal scores over the treatment period (mean±SD) and analyzed using Kruskal-Wallis test. […] Significances (p value) between groups were determined using the Newman-Keul test. A value of p<0.05* and above was considered significant.

[2] = tested on: lymphocytes in blood; assay: Total lymphocyte count in blood of normal mice (lymphopenic effect); format: in vivo, C57BL/6 mice; details: normal mice without EAE, 1 mg/kg/day for 19 days
Procedure: The bloods collected in EDTA blood collection tubes (BD Biosciences) were analyzed by an automated hematology analyzer for counting total lymphocytes. For counting of each subset of lymphocytes, 50 μl of blood was mixed with staining buffer (20 μl) containing fluorescence labelled antibodies and red-blood-cells were lysed with FACS lysing solution (BD Biosciences) prior to fluorescence flow-cytometric analysis. For staining of CD3+, CD4+, and CD8+ cells, allophycocvanin (APC)-labeled anti-mouse CD3 (eBioscience clone 17A2), Fluorescein isothiocyanate (FITC)-labeled anti-mouse CD4 (eBioscience clone RM4-5), APC-labeled anti-mouse CD8 (eBioscience clone 53-6.7) and appropriate isotype matched controls.

[3] = tested on: RhoA; assay: RhoA activity assay in thrombin treated hBMVECs; format: cell-based, human; details: thrombin 0.1 unit/ml 5 min; L-NIO or FeTPPS 10 μM pretreated 30 min; GSNO or SIN-1 various concentrations pretreated 2 hr
Procedure: (§1) Cell culture: Primary human brain microvascular endothelial cells (hBMVECs) were purchased from Angio-Proteomie (Cat #: cAP-0002, Atlanta, Ga.). The cells were cultured in cell culture flasks or plates precoated with Quick Coating Solution (Angio-Proteomie; Cat #: cAP-01) and maintained in Endothelial Growth Medium (Angio-Proteomie; Cat #: cAP-02) at 37° C. under 5% CO2/95% air. When the cells were almost confluent, the medium was replaced with endothelial basal medium (Angio-Proteomie; Cat #: cAP-03) containing 0.5% fetal bovine serum (FBS; Life Technologies, Grand Island, N.Y.) about 8-12 hours before the experiment. No institutional approval was required for this study. The study was not pre-registered.
RhoA activity in hBMVECs was analyzed by RhoA Activation Assay Kit (Abeam Cat #: ab211164, Cambridge, Mass.). Briefly, following drug treatments, the cells were lysed with 1× Assay buffer provided in the kit. Lysates were centrifuged (14,000×g for 10 sec), and supernatants were incubated with agarose beads coupled to GST-Rhotekin-Rho binding domain (RBD) for 2 h at 4° C. Beads were then washed with 1× Assay buffer and GTP-bound RhoA was eluted with 2×SDS-PAGE sample buffer. Amounts of active (GTP-bound) RhoA were determined by Western blot analysis using antibody specific to RhoA (Abeam).

[4] = tested on: intracellular Ca^2+ ([Ca^2+]i) influx; assay: Assay for intracellular Ca2+ influx in thrombin treated hBMVECs; format: cell-based, human; details: thrombin 0.1 unit/ml; L-NIO or FeTPPS 10 μM; GSNO or SIN-1 various concentrations
Procedure: as §1, with “pre-registered. Intracellular Ca^2+ concentration ([Ca^2+]i) was measured with Fluo-4 Direct Calcium Assay Kit (Thermo Fisher Scientific, Cat #: F10471, Grand Island, N.Y.). Briefly, culture medium in the 96-well plate was replaced with a Ca^2+ sensitive dye Fluo-4 in an endothelial basal medium. After 30 min incubation, the dye was removed and cells were incubated with the original medium with or without the drugs at 37° C. for 15 min. Following thrombin treatment, time course changes of fluorescent intensity were quantified using a CLARIOstar multi-well fluorometer (BMG Labtech, Cary, N.C.).” for “pre-registered.”

[5] = tested on: myosin light chain (MLC); assay: Western analysis of MLC phosphorylation (Ser19) in thrombin treated hBMVECs; format: cell-based, human; details: thrombin 0.1 unit/ml 5 min; L-NIO or FeTPPS 10 μM; GSNO or SIN-1 various concentrations
Procedure: as §1
Western immunoblot analysis was performed by standard method using 50 μg of cell lysates. Following the SDS-PAGE electrophoresis, proteins were transferred from the gel onto the Polyvinylidene fluoride membrane (GE Healthcare Life Sciences, Marlborough, Mass.). Membranes were blocked with non-fat dry milk (Santa Cruz Biotechnology) or I-Block™ (ThermoFisher Scientific, Waltham, Mass.) for detection of phospho-proteins and incubated with primary antibodies, such as MBP (Santa Cruz Biotech Cat #: sc13914; RRID: AB_648798), phospho-(Ser^19) MLC (Abeam, Cat #: ab2480; RRID: AB_303094), MLC (Abeam, Cat #: ab79935; RRID:AB_1952220), P-actin (Santa Cruz Biotechnology, Cat #: sc-47778; RRID:AB_2714189), phospho-eNOS (Ser^1177) (Cell Signaling, Cat #: 9571; RRID: AB_329837, Danvers, Mass.), eNOS (Cell Signaling, Cat #: 32027), RhoA (Santa Cruz Biotechnology; Cat #: sc418; RRID: AB_628218) or 3-nitrotyrosine (Abeam, Cat #: ab61392; RRID: AB_942087). Following washing, the membranes were incubated with horseradish peroxidase conjugated secondary antibody (Jackson Immunoresearch Lab, West Grove, Pa.), washed and then incubated with ECL reagent (Amersham Life Science, Pittsbrugh, Pa.), and exposed to Amersham Hyperfilm ECL film

[6] = tested on: protein-associated 3-nitrotyrosine; assay: Assay for protein-associated nitrotyrosine in hBMVECs; format: cell-based, human
Procedure: as §1
Cellular levels of protein-associated 3-nitrotyrosine were analyzed by ELISA Kit (Abeam, Cat #: ab116691) and Western blot analysis using antibody specific to 3-nitrotyrosine (Abeam, Cat #: ab61392). For the ELISA, hBMVECs were lysed in extraction buffer provided with the kit followed by centrifugation at 16,000×g 4° C. The cell lysate supernatants were subjected to protein quantification with Bio-Rad DC protein assay kit (Bio-Rad, Hercules, Calif.) and the equal amounts of proteins (500 μg) were loaded onto 96 well microplate coated with 3-nitrotyrosine capture antibody and followed by incubation with biotin-conjugated 3-nitrotyrosine detector antibody. Following washing, the plates were incubated with HRP-conjugated streptoavidin and the levels of 3-nitrotyrosine were measured by incubation with 3,3′,5,5′-tetramethylbenzidine solution and colorimetric analysis at […] using SpectraMax 190 Microplate Reader (Molecular Devices, Sunnyvale, Calif.). For analysis of degree of RhoA tyrosine nitration, the cell lysates were immunoprecipiated with antibody specific to 3-nitrotyrosine (Abeam) and the levels of tyrosine nitrated RhoA were analyzed by Western analysis for RhoA.

[7] = tested on: hBMVECs; assay: Assay for F-actin stress fiber development in thrombin treated hBMVECs; format: cell-based, human; details: thrombin 0.1 unit/ml 30 min; GSNO 100 μM or SIN-1 100 μM pretreated 2 hr
Procedure: as §1
Assay for F-actin stress fiber development and endothelial cell contraction: hBMVECs were cultured on fibronectin-coated chamber slides (BD Bioscience). Following drug treatments, the cells were fixed with 4% (wt/vol) paraformaldehyde, permeabilized by the addition of 0.25% Triton X-100, and blocked by 2% bovine serum albumin (BSA) in phosphate buffered saline (PBS). […] The density of fluorescence was analyzed by ImageJ (NIH, Bethesda, Md.).

[8] = tested on: hBMVECs; assay: Assay of trans-endothelial electrical resistance (TEER) in thrombin treated hBMVECs; format: cell-based, human; details: thrombin 0.1 unit/ml; GSNO 100 μM or SIN-1 500 μM pretreated 2 hr
Procedure: as §1, with “pre-registered. For evaluation of the endothelial barrier function, hBMVECs were plated on fibronectin-coated polycarbonate filters (Transwell system, Corning, Midland, N.C.) containing Endothelial Growth Medium (Angio-Proteomie Cat #: cAP-02). The medium was renewed every other day. Five days after seeding, the medium was replaced with Endothelial Basal Medium (Angio-Proteomie Cat #: cAP-03) containing 0.5% FBS and incubated for 2 days. Following drug treatments, transendothelial electrical resistance (TEER) was measured by EVOM2 (Word Precision Instruments) as described previously (Li et al., 2006).” for “pre-registered.”

| Compound | clinical score at the peak of disease ([1]; day 21 post immunization, 1 mg/kg/day from disease onset (GSNO oral, N6022 i.p., FTY720 oral), untreated EAE 3.5±0.5) | clinical score at the remission of disease ([1]; day 41 post immunization, 1 mg/kg/day from disease onset (GSNO oral, N6022 i.p., FTY720 oral), untreated EAE 2.5±0.5) | efficacy on EAE disease compared at the same dose ([1]; single dose comparison of N6022, GSNO and FTY720, 1 mg/kg/day) | numbers of total lymphocytes, CD3+ T cells, CD4+ T cells and CD8+ cells in blood [2] | thrombin-induced RhoA activation [3] | thrombin-induced intracellular Ca2+ influx [4] | thrombin-induced MLC phosphorylation [5] | thrombin-induced 3-nitrotyrosine levels ([6]; thrombin 0.1 unit/ml 20 min, L-NIO or FeTPPS 10 μM pretreated 30 min, ELISA) | RhoA tyrosine nitration ([6]; various concentrations, incubated 2 hr) | cellular levels of protein-associated 3-nitrotyrosine ([6]; various concentrations, incubated 2 hr, no thrombin) | thrombin-induced development of F-actin stress fiber formation [7] | thrombin-induced loss of TEER [8] |
| --- | --- | --- | --- | --- | --- | --- | --- | --- | --- | --- | --- | --- |
| CCCCCCCCc1ccc(CCC(N)(CO)CO)cc1 [FTY720] | 3.0±0.87 | 1.67±0.58 | less effective | significantly reduced |  |  |  |  |  |  |  |  |
| CC(=N)NCCC[C@H](N)C(=O)O.Cl.Cl [L-NIO, N^5-(1-Iminoethyl)-L-omithine dihydrochloride] |  |  |  |  | decreased | had not effect | inhibited | attenuated |  |  |  |  |
| Cl.N=c1c[n+](N2CCOCC2)[n-]o1 [SIN-1, 3-morpholinosydnonimine chloride] |  |  |  |  | enhanced | enhanced | enhanced |  | increased | increased | enhanced | enhanced |
